Structure (SMILES) | melting point [°C]
CC(C)(C)OC(=O)c1ccc(C(=O)OC(C)(C)C)cc1 | 117 to 118
CCN(CC)Cc1cc(/C=C/C(=O)Nc2ccccc2C(=O)O)ccc1OC | 202 to 205
COc1ccc(-c2ccc(C=C3SC(=O)NC3=O)cc2)cc1C12CC3CC(CC(C3)C1)C2 | 304 to 306
CCc1cc(-c2ccc(-c3ccn(C)n3)cc2)ccc1OC | 167 to 170
CCC1=NC(=NOC(=O)NC)SC1(C)CC (configuration not stated) | 88 to 90
C[Si](C)(C)c1ccc2cc(C(=O)Nc3ccc(N4CC(O)C4)nc3)n(Cc3cccc(F)c3)c2c1 | 188 to 189
Cc1ccc(C2COc3c(C)c(C)cc(C)c32)nc1 (configuration not stated) | 69 to 70
CCCc1nc2c(N)nc(Cl)c(C)c2n1CCOCCN | 158 to 161
CCCCCCCOC(=O)Cc1nc(-c2ccc(Cl)cc2)oc1-c1ccco1 | 69 to 70
CCCc1nc(Cl)c(C=O)n1Cc1ccc(-c2ccccc2-c2nnn[nH]2)cc1 | 165 to 167
COc1ccc(S(=O)(=O)c2ncn(-c3ccccc3)c2-c2ccccc2)cc1 | 157
CCCCCCCCCCCCCCC(=O)C(=O)N[C@H](C(=O)NCC(=O)O)C(C)C | 87 to 89
CCCCCC(CC(=O)Nc1cc(C(N)=O)ccc1C(C)(C)C)c1ccc(OCCC(N)S(C)(=O)=O)cc1OC (configuration not stated) | 77 to 79
Cc1[nH]c(=O)n(-c2cc(C(=O)OC(C)C)c(Cl)cc2F)c(=O)c1SC#N | 159 to 161
CCOC(=O)c1cn(-c2cccc(COCc3ccccn3)c2)cn1 | 76.7 to 78.8
CCOC(=O)Cc1ccc(-c2ccc3c(=O)c(C(=O)NC)c(N)n(CC)c3n2)cc1 | 195
Fc1ccc2c(C3CCN(C(=S)Nc4ccccc4)CC3)nn(-c3ccccc3)c2c1 | 151 to 153
COc1ccc(S(=O)(=O)Nc2nsc(-c3ccc(Cl)cc3)n2)cc1OC | 220 to 221
CC(C)C(C#N)Nc1ccc(C(F)(F)F)cc1Cl (configuration not stated) | 63.2 to 64.8
CCN(CCO)CC(C)N1c2ccccc2Sc2ccc(C(=S)NCc3ccccc3)cc21 (racemic) | 154
Cc1cccc(NC(=O)NCC(=O)N(CC(=O)OC(C)(C)C)c2ccccc2C(=O)N2CCCc3ccccc32)c1 | 160
CN(CC(N)=O)C1Cc2ccccc2C1 | 122 to 123
CC(C)Oc1ccc(-n2c(-c3ccc(C(=O)O)cc3)c(C(=O)O)c3cc(Oc4cccc(Cl)c4)ccc32)cc1 | 211 to 217
CCSc1cccc(-c2nc(=O)c3ccccc3s2)n1 | 161 to 162
CCCc1c(-c2ccccc2)nc2n1CCc1ccccc1C2OC1CCN(C)CC1 (configuration not stated) | 144

Structure (SMILES) | melting point [°C]
CC1(c2ccc(O)c(Br)c2)C(=O)Nc2cc(Cl)cc(Cl)c2C1=O (configuration not stated) | 228 to 229
Cn1cc(C(=O)O)c(=O)c2cc3cc(F)c(N4CCNC(c5ccccc5)C4)c(F)c3nc21 (racemic) | 298
O=C(CCc1ccccc1)CN1C(=O)CC1S(=O)CCO (configuration not stated) | 64 to 65
CC(C)(C)OC(=O)Nc1ccc(NC(=O)OC(C)(C)C)c(Br)c1 | 130
CC(C)OC(=O)C=Cc1cc(-n2c(=O)cc(C(F)(F)F)n(C)c2=O)c(F)cc1Cl | 137 to 139
O=C(CN1CC2C(=O)N(c3cc(Cl)cc(Cl)c3)C(=O)C2C1)c1ccc(Br)cc1 (configuration not stated) | 150
O=[N+]([O-])c1ccc(-c2ncnn2-c2ccccc2F)cc1 | 143 to 145
CCCCCCCCCCCCCCCCCCCC(=O)OCC(O)COC(=O)CCCCCCCCCCCCCCCCCCC | 83 to 84
CC(C)OC(=O)c1c(S(C)(=O)=O)ccc(C(=O)O)c1Cl | 114 to 118
ClCCOc1cc(-c2cccs2)n[nH]1 | 134 to 138
CCC1SC(=O)N(Cc2ccc(C(=O)O)cc2)N=C1c1ccc(O)c(O)c1 (configuration not stated) | 106
O=C(C(=O)c1cccc(C#Cc2ccccc2)c1)c1cccc(C#Cc2ccccc2)c1 | 144 to 145
Cc1ccc2c3c(ccc2n1)OC[C@H](CN1CCN(c2ccc4cc(Br)ccc4n2)CC1)O3 | 153 to 154
O=C(O)CC1CCC(N2CCN(CCNc3ccncc3)CC2)CC1 (configuration not stated) | 220
CN(C)c1ccc(NC(=O)[C@@H](Cc2ccccc2)NC(=O)CCC(=O)O)cc1 | 197 to 198
COCC(F)Cn1ccnc1[N+](=O)[O-] (configuration not stated) | 39 to 44
CCOC(=O)C(=CNC1CC1)C(=O)c1cc(F)c(-n2cccc2)cc1F | 90 to 92
O=C(NCCCO)c1cccc(Nc2nccc(-c3ccnc(NCCCO)c3)n2)c1 | 153 to 154
COc1cc(CCCOS(C)(=O)=O)ccc1OCc1coc(/C=C/c2ccccc2)n1 | 130 to 131
Cc1noc(NS(=O)(=O)c2ccccc2-c2ccc(-c3ncco3)cc2CC(=O)NC(C)(C)C)c1C | 117 to 123
CCCc1nc(I)c(CO)[nH]1 | 169 to 170
CCC(=O)Cc1nc2ccccc2c(=O)o1 | 70 to 72
NS(=O)(=O)c1ccc(CCN2CCN(c3ccncc3)CC2)cc1 | 203 to 204
CCN(C(=O)N(CC)c1ccc2c(c1)C(C)(C)CCC2(C)C)c1ccc(C(=O)O)cc1 | 169 to 172
C[Si](C)(C)CCOCn1cc(C#N)c(=O)c2cc(N)c(N)cc21 | > 300

Structure (SMILES) | melting point [°C]
O=C(O)c1cc2cc(-c3ccc(O)cc3)ccc2o1 | 297 to 300
CC[C@@H](NC(=O)N1CC(=O)NC[C@H](Cc2cc(Cl)ccc2OC)C1=O)c1ccc(C(=O)O)c(N)c1 | 139 to 140
CCCc1c(OCCCOc2ccc(-c3nnn[nH]3)cc2Cl)ccc(C(C)=O)c1O | 214 to 216
O=C(C=Cc1ccc(O)c(O)c1)OCCc1ccccc1 | 126 to 128
O=C(O)C(O)c1ccc2ccccc2c1 (racemic) | 164 to 166
CCOC(=O)COc1cccc2oc(-c3ccccc3)cc(=O)c12 | 89.5 to 90.5
c1cc(-c2noc(C3CC3)n2)cnn1 | 115 to 117
CC1(OCc2ccccc2F)COC(C(C)(C)C)OC1 (configuration not stated) | 50 to 52
CCCOc1cc(N(CC)CC)ccc1-c1nc2cc3c(cc2[nH]1)C(C)(C)CC(=O)N3 | 147 to 148
Cc1c(Br)c2c(c(C)c1NC(=O)OC(C)(C)C)C(N1CCCC1)C(C)(C)O2 (configuration not stated) | 128 to 130
CC1(C)COc2cc(Cl)c(Cl)cc2C(O)(c2ccccn2)C1 (configuration not stated) | 128
COc1ccc(CCNS(=O)(=O)c2ccc([N+](=O)[O-])cc2)cc1 | 92 to 93
CCCn1c(COCC)nc2c(N)nc3cc(OC4CCN(C(C)=O)CC4)ccc3c21 | 178 to 180
CCOC(=O)c1cc2c(C)cccc2n1CCC(=O)OC(C)(C)C | 78 to 79
CC(=O)OCC(=O)C1C(C)CC2C3C=C(Cl)C4=CC(=O)C=CC4(C)C3C(O)CC21C (configuration not stated) | 192
COc1ccc(CNC(Nc2ccccc2)=C(C#N)C(=O)OC(C)(C)C)cc1 | 158 to 159
C#CCn1c(=O)n(C(C)C)c2ccc(-c3ncc(C(F)(F)F)cc3Cl)cc21 | 109 to 111
CCCCCCCCN(Cc1ccc(CN(CCCCCCCC)OC(=O)c2ccccc2)cc1)OC(=O)c1ccccc1 | 80 to 81
CNC(=S)C1=CC(CF)(CF)Oc2ccc(C(F)(F)C(F)(F)C(F)(F)F)cc21 | 125 to 126
COC(=O)c1ccc(F)c(Br)c1 | 29 to 30
Cn1nnc2ccc(CNNc3ccc(Cl)cc3)cc21 | 96
CC(C)C(=O)O[C@H]1[C@H](C)OC(=O)[C@@H](NC(=O)OC(C)(C)C)COC(=O)[C@@H]1CC(=O)OC(C)(C)C | 170 to 172
COCCNC(=O)c1ccc(C(=O)NS(=O)(=O)c2ccccc2)cn1 | 190 to 191
CCON1C(C)(C)CC(OC(=O)c2ccccc2)CC1(C)C | 76 to 78
O=C(Cc1ccccc1[N+](=O)[O-])c1ccccc1F | 84 to 86

Structure (SMILES) | melting point [°C]
COc1nc2ccccc2cc1NC(=O)N1CCN(c2ccccc2F)CC1 | 156 to 158
CC(C)(C)OC(=O)C(F)=CC1C(C(=O)OC(C#N)c2ccc(F)c(Oc3ccccc3)c2)C1(C)C (configuration not stated) | 122
COc1cc(C(=O)C2C(=O)N(C)C(=O)N(C)C2=O)ccc1Oc1nc2ccccc2s1 | 210 to 211
COC(=O)CN(C)S(=O)(=O)c1ccc(Cl)cc1 | 80 to 80.5
CC1(C)CC(O)CC(C)(C)N1Cc1ccc(CN2C(C)(C)CC(O)CC2(C)C)cc1 | 237 to 239
O=C(CCCN1CCC(NC(=O)c2ccccc2)CC1)c1ccc(F)cc1 | 161 to 162
COc1ccc2c(N(C)CCN3CCOCC3)noc2c1 | 43 to 44
Cc1c(CNCC(C)(C)C)[nH]c2c(C)c(NC(=O)c3ccc(OC[C@@H]4CCCO4)cc3)ccc12 | 178 to 179
NC(=O)OC[C@@H]1[C@H](NC(=O)/C(=N\OCC(=O)O)c2csc(N)n2)C(=O)N1S(=O)(=O)O | 207
O=Cc1csc(-c2ccccc2)c1 | 64 to 65
COc1nc(=O)n(-c2ccc(Cl)cc2)c(=O)[nH]1 | 238 to 241
O=C(O)C1CCc2c(c3ccccc3n2C(=O)c2ccc(F)cc2)C1 (configuration not stated) | 180 to 182
Cc1cc(NC(=O)C(C)(O)COc2ccc(OCCBr)cc2)ccc1[N+](=O)[O-] (configuration not stated) | 135 to 138
Cc1ccc(N=c2scc(-c3ccc(Cl)c(S(=O)(=O)N(C)C)c3)n2C)c(C)c1 | 152 to 154
CO[C@H]1[C@H](N2CCCC2)c2cc(C#N)ccc2OC1(C)C (relative stereo) | 108 to 109
Clc1ccc2nc(CN3CCN(c4ccccc4)CC3)[nH]c2c1 | 198 to 201
O=C1CC(c2cccc(-n3ccnn3)c2)=Nc2ccc(-c3ccccc3F)cc2N1 | 209 to 212
CCCCN1CC=C(c2c[nH]c3ccc(NS(C)(=O)=O)cc23)CC1 | 202 to 204
Cc1sc(N2C(=O)c3ccccc3C2=O)c(C(=O)c2ccc(Cl)cc2)c1CN1CCN(c2ccc(F)cc2)CC1 | 110 to 112
C=CCNC(=O)C1=C(C(=O)Nc2ccc(Br)cc2F)CCCC1 | 167 to 169
CN1CC(COC2c3ccccc3CCn3cc(I)nc32)C1 (configuration not stated) | 100
CC(=O)NCC=Cc1ccc2ncnc(Nc3ccc(Oc4ccc(C)nc4)c(Cl)c3)c2c1 | 254 to 256

From a melting point compilation (Tetko et al.; mined from patent text by program, amines drawn as free bases though some values may be those of a salt)
